These results are taken from patent US20240109864A1, “SUBSTITUTED PYRAZOLYL PIPERIDINE CARBOXYLIC ACIDS” (BAYER AKTIENGESELLSCHAFT, priority 2020, published 2024).

Structures can show the parent of a compound that is named as a salt.

For the assay, the target named is T1, recombinant guanylate cyclase reporter cell line (Rattus norvegicus, UniProt P20595).
T1 construct: expressed in transfected cells
T1 sequence (P20595 1-619): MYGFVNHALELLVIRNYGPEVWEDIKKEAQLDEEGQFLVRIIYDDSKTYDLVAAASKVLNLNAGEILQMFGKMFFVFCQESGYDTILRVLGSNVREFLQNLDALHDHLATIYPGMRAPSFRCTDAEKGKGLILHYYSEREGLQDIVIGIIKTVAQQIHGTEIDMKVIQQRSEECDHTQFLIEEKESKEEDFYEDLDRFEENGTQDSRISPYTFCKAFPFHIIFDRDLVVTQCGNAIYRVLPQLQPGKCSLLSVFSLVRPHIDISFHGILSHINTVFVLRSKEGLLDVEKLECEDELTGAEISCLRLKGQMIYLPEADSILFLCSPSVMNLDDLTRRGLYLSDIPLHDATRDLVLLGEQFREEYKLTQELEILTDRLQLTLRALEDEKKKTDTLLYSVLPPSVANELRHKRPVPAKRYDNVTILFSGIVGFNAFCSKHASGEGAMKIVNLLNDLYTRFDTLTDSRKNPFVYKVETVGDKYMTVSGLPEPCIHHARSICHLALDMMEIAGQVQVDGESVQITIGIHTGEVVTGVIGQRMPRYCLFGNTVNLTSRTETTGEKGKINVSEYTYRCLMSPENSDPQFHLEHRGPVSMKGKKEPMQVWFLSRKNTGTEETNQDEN
T1 sequence (P19686 1-690 partner): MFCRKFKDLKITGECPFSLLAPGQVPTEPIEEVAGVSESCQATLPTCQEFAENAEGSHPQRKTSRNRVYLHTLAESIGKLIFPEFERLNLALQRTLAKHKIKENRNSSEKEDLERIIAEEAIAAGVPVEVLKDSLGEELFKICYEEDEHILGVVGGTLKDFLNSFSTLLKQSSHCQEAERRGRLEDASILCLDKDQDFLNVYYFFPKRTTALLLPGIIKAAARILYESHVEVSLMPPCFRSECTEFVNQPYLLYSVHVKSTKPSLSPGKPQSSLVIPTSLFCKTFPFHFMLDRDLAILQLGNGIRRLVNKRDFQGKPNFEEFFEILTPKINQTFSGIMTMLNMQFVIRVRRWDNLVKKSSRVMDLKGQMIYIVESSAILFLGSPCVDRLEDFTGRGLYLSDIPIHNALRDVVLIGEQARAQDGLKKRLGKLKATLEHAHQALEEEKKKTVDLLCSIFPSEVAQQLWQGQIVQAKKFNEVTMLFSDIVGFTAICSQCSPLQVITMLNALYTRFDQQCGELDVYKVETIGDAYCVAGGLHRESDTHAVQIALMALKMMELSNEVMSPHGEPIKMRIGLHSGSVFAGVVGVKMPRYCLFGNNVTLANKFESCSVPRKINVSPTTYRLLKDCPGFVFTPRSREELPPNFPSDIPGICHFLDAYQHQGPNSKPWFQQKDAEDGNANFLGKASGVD
Put plainly: Effect on a recombinant guanylate cyclase reporter cell line. The note with it: in some cases mean values from individual determinations; for MEC: MEC = minimum effective concentration; for EC50: half maximal effective concentration. It counts as cell-based. As for the experimental part: The cellular activity of the compounds according to the invention was determined using a recombinant guanylate cyclase reporter cell line, as described in F. Wunder et al., Anal. Biochem. 339, 104-112 (2005).

Consider `O=C(O)c1cnn(C2CCCN(c3cc(Cl)ccc3-c3ccc(N4CCN(CC5CC5(F)F)CC4)cc3)C2)c1C(F)(F)F` (mixture of isomers) [Example 31, 1-[1-[5-Chloro-2-[4-[4-[[2,2-difluorocyclopropyl]methyl]piperazin-1-yl]phenyl]phenyl]-3-piperidyl]-5-(trifluoromethyl)pyrazole-4-carboxylic acid hydrochloride], for which the MEC is listed as 1.0 nM and the EC50 is 3.8 nM.

Regarding `CN1CCN(c2ccc(-c3ccc(Cl)cc3N3CCCC(n4ncc(C(=O)O)c4C(F)(F)F)C3)cc2)CC1` (single isomer, unassigned) [Example 1, 1-[1-[5-Chloro-2-[4-(4-methylpiperazin-1-yl)phenyl]phenyl]-3-piperidyl]-5-(trifluoromethyl)pyrazole-4-carboxylic acid], the MEC is recorded as 10.0 nM and the EC50 came out at 47.5 nM. As for `CN1CCN(c2ccc(-c3ccc(Cl)cc3N3CCCC(n4ncc(C(=O)O)c4C(F)(F)F)C3)cc2)CC1` (single isomer, unassigned) [Example 2, 1-{1-[4-Chloro-4′-(4-methylpiperazin-1-yl)[1,1′-biphenyl]-2-yl]piperidin-3-yl}-5-(trifluoromethyl)-1H-pyrazole-4-carboxylic acid hydrochloride], the EC50 is 28.8 nM. The MEC (hydrochloride) was found to be 5.5 nM. For the molecule `CCN1CCN(c2ccc(-c3ccc(Cl)cc3N3CCCC(n4ncc(C(=O)O)c4C(F)(F)F)C3)cc2)CC1` (single isomer, unassigned) [Example 3, 1-{1-[4-Chloro-4′-(4-ethylpiperazin-1-yl)[1,1′-biphenyl]-2-yl]piperidin-3-yl}-5-(trifluoromethyl)-1H-pyrazole-4-carboxylic acid hydrochloride], the MEC worked out at 10.0 nM and the EC50 is 66.5 nM. For `CCCN1CCN(c2ccc(-c3ccc(Cl)cc3N3CCCC(n4ncc(C(=O)O)c4C(F)(F)F)C3)cc2)CC1` (single isomer, unassigned) [Example 4, 1-[1-[5-Chloro-2-[4-(4-propylpiperazin-1-yl)phenyl]phenyl]-3-piperidyl]-5-(trifluoromethyl)pyrazole-4-carboxylic acid hydrochloride] the same measures were 3.0 nM and 16 nM. Consider `N#CCCN1CCN(c2ccc(-c3ccc(Cl)cc3N3CCCC(n4ncc(C(=O)O)c4C(F)(F)F)C3)cc2)CC1` (single isomer, unassigned) [Example 5, 1-[1-[5-Chloro-2-[4-[4-(2-cyanoethyl)piperazin-1-yl]phenyl]phenyl]-3-piperidyl]-5-(trifluoromethyl)pyrazole-4-carboxylic acid], for which the MEC came to 1.0 nM and the EC50 was determined as 4.8 nM.

For the molecule `CC(C)N1CCN(c2ccc(-c3ccc(Cl)cc3N3CCCC(n4ncc(C(=O)O)c4C(F)(F)F)C3)cc2)CC1` (single isomer, unassigned) [Example 6, 1-[1-[5-Chloro-2-[4-(4-isopropylpiperazin-1-yl)phenyl]phenyl]-3-piperidyl]-5-(trifluoromethyl)pyrazole-4-carboxylic acid hydrochloride], the MEC is 10.0 nM and the EC50 came out at 88 nM. On to `O=C(O)c1cnn(C2CCCN(c3cc(Cl)ccc3-c3ccc(N4CCN(C[C@@H]5C[C@@H]5F)CC4)cc3)C2)c1C(F)(F)F` (single isomer, unassigned) [Example 8, hydrochloride], for which the EC50 was 53 nM. The MEC (hydrochloride) is 10.0 nM. Take `O=C(O)c1cnn(C2CCCN(c3cc(Cl)ccc3-c3ccc(N4CCN(CC5(F)CC5)CC4)cc3)C2)c1C(F)(F)F` (single isomer, unassigned) [Example 9, 1-[1-[5-Chloro-2-[4-[4-[(1-fluorocyclopropyl)methyl]piperazin-1-yl]phenyl]phenyl]-3-piperidyl]-5-(trifluoromethyl)pyrazole-4-carboxylic acid hydrochloride]: the MEC is listed as 0.3 nM and the EC50 was found to be 1.1 nM. For `CC(C)(F)CN1CCN(c2ccc(-c3ccc(Cl)cc3N3CCCC(n4ncc(C(=O)O)c4C(F)(F)F)C3)cc2)CC1.Cl` (single isomer, unassigned) [Example 10, 1-[1-[5-Chloro-2-[4-[4-(2-fluoro-2-methyl-propyl)piperazin-1-yl]phenyl]phenyl]-3-piperidyl]-5-(trifluoromethyl)pyrazole-4-carboxylic acid hydrochloride] the same measures were 3.0 nM and 24.5 nM. As for `CC(F)(F)CN1CCN(c2ccc(-c3ccc(Cl)cc3N3CCCC(n4ncc(C(=O)O)c4C(F)(F)F)C3)cc2)CC1` (single isomer, unassigned) [Example 11, 1-[1-[5-Chloro-2-[4-[4-(2,2-difluoropropyl)piperazin-1-yl]phenyl]phenyl]-3-piperidyl]-5-(trifluoromethyl)pyrazole-4-carboxylic acid hydrochloride], the MEC stood at 0.3 nM and the EC50 is 1.4 nM.

For `O=C(O)c1cnn(C2CCCN(c3cc(Cl)ccc3-c3ccc(N4CCN(CC(F)F)CC4)cc3)C2)c1C(F)(F)F` (single isomer, unassigned) [Example 12, 1-[1-[5-Chloro-2-[4-[4-(2,2-difluoroethyl)piperazin-1-yl]phenyl]phenyl]-3-piperidyl]-5-(trifluoromethyl)pyrazole-4-carboxylic acid hydrochloride], the EC50 is 4.6 nM. Moreover, the MEC (hydrochloride) was determined as 1.0 nM. For `O=C(O)c1cnn(C2CCCN(c3cc(Cl)ccc3-c3ccc(N4CCN(CC(F)F)CC4)cc3)C2)c1C(F)(F)F` (single isomer, unassigned) [Example 13, 1-[1-[5-Chloro-2-[4-[4-(2,2-difluoroethyl)piperazin-1-yl]phenyl]phenyl]-3-piperidyl]-5-(trifluoromethyl)pyrazole-4-carboxylic acid], the MEC worked out at 3.0 nM and the EC50 worked out at 54 nM.

On to `O=C(O)c1cnn(C2CCCN(c3cc(Cl)ccc3-c3ccc(N4CCN(CCC(F)F)CC4)cc3)C2)c1C(F)(F)F` (single isomer, unassigned) [Example 14, 1-[1-[5-Chloro-2-[4-[4-(3,3-difluoropropyl)piperazin-1-yl]phenyl]phenyl]-3-piperidyl]-5-(trifluoromethyl)pyrazole-4-carboxylic acid hydrochloride], for which the MEC is on record as 0.3 nM and the EC50 is 3.1 nM.

Take `O=C(O)c1cnn(C2CCCN(c3cc(Cl)ccc3-c3ccc(N4CCN(CC(F)(F)F)CC4)cc3)C2)c1C(F)(F)F` (single isomer, unassigned) [Example 15, 1-[1-[5-Chloro-2-[4-[4-(2,2,2-trifluoroethyl)piperazin-1-yl]phenyl]phenyl]-3-piperidyl]-5-(trifluoromethyl)pyrazole-4-carboxylic acid]: the MEC was found to be 0.6 nM. With `O=C(O)c1cnn(C2CCCN(c3cc(Cl)ccc3-c3ccc(N4CCN(CC(F)(F)F)CC4)cc3)C2)c1C(F)(F)F` (single isomer, unassigned) [Example 16, 1-[1-[5-Chloro-2-[4-[4-(2,2,2-trifluoroethyl)piperazin-1-yl]phenyl]phenyl]-3-piperidyl]-5-(trifluoromethyl)pyrazole-4-carboxylic acid], the MEC turned out to be 3.0 nM and the EC50 was 14.4 nM. For `O=C(O)c1cnn(C2CCCN(c3cc(Cl)ccc3-c3ccc(N4CCN(CCC(F)(F)F)CC4)cc3)C2)c1C(F)(F)F` (single isomer, unassigned) [Example 17, 1-[1-[5-Chloro-2-[4-[4-(3,3,3-trifluoropropyl)piperazin-1-yl]phenyl]phenyl]-3-piperidyl]-5-(trifluoromethyl)pyrazole-4-carboxylic acid hydrochloride] the same measures were less than 0.3 nM and 1.4 nM.

For orientation: EC50 means the concentration that produces a half-maximal response.
